From ChEMBL document CHEMBL3785046, “Synthesis, in vitro and in vivo evaluation of novel substituted N-(4-(2-(4-benzylpiperazin-1-yl)ethoxy)phenyl)-N-methyl-quinazolin-4-amines as potent antitumor agents” (Bioorg Med Chem Lett, 2016)
pIC50: −log10 of the molar value. Each block holds one compound with its values, some of them ahead of it. Activity calls are given as the source filed them. The calls are words filed in the database; no cut-off is given here.

Assays:
[1] = system: HepG2; test: Antiproliferative activity against human HepG2 cells after 24 hrs by MTT assay; format: functional, cell-based; conditions: HepG2, 24 h
[2] = system: MCF7; test: Antiproliferative activity against human MCF7 cells after 24 hrs by MTT assay; format: functional, cell-based; conditions: MCF7, 24 h
[3] = Antiproliferative activity against human SW620 cells after 24 hrs by MTT assay; format: functional, cell-based; conditions: SW-620, 24 h
[4] = system: A549; test: Antiproliferative activity against human A549 cells after 24 hrs by MTT assay; format: functional, cell-based; conditions: A549, 24 h
[5] = system: HepG2; test: Antitumor activity against human HepG2 cells xenografted with nude mouse assessed as tumor weight at 5 mg/kg, iv administered every 2 days for 31 days; format: functional
[6] = system: HepG2; test: Antitumor activity against human HepG2 cells xenografted with nude mouse assessed as tumor volume at 5 mg/kg, iv administered every 2 days for 31 days (reference value: 103.6 +/- 1.77 mm3); format: functional
[7] = system: HepG2; test: Cell cycle arrest in human HepG2 cells assessed as accumulation at G1 phase at 200 nM after 24 hrs by propidium iodide staining based flow cytometry (reference value: 42%); format: functional
[8] = system: HepG2; test: Cell cycle arrest in human HepG2 cells assessed as accumulation at G2/M phase after 24 hrs by propidium iodide staining based flow cytometry (reference value: 19%); format: functional
[9] = system: Mus musculus; test: Toxicity in nude mouse xenografted with human HepG2 cells assessed as weight loss at 10 mg/kg, iv administered every 2 days for 31 days; format: organism-based; conditions: in vivo
[10] = system: HepG2; test: Upregulation of phosphorylated histone H3 levels in human HepG2 cells at 10 to 100 nM after 24 hrs by Western blot analysis; format: functional, cell-based
[11] = system: HepG2; test: Cell cycle arrest in human HepG2 cells assessed as accumulation at G2/M phase at 500 nM after 24 hrs by propidium iodide staining based flow cytometry (reference value: 19%); format: functional
[12] = system: HepG2; test: Cell cycle arrest in human HepG2 cells assessed as accumulation at G2/M phase at 200 nM after 24 hrs by propidium iodide staining based flow cytometry (reference value: 19%); format: functional
[13] = system: HepG2; test: Binding affinity to alpha tubulin in human HepG2 cells assessed as disruption of microtubule at 1 uM after 24 hrs by immunofluorescence staining based microscopy; format: cell-based
[14] = system: HepG2; test: Cell cycle arrest in human HepG2 cells assessed as accumulation at G2/M phase at 100 nM after 24 hrs by propidium iodide staining based flow cytometry (reference value: 19%); format: functional
[15] = system: HepG2; test: Upregulation of cyclin B1 in human HepG2 cells at 10 to 100 nM after 24 hrs by Western blot analysis; format: functional, cell-based
[16] = system: HepG2; test: Antitumor activity against human HepG2 cells xenografted with nude mouse assessed as tumor mass change at 10 mg/kg, iv administered every 2 days for 31 days; format: functional
[17] = system: HepG2; test: Antitumor activity against human HepG2 cells xenografted with nude mouse assessed as tumor weight at 10 mg/kg, iv administered every 2 days for 31 days; format: functional
[18] = system: HepG2; test: Induction of apoptosis in human HepG2 cells assessed as upregulation of cleaved caspase-3 levels after 48 hrs by Western blot analysis; format: functional, cell-based
[19] = system: HepG2; test: Cell cycle arrest in human HepG2 cells assessed as accumulation at G1 phase at 500 nM after 24 hrs by propidium iodide staining based flow cytometry (reference value: 42%); format: functional
[20] = system: HepG2; test: Antitumor activity against human HepG2 cells xenografted with nude mouse assessed as tumor volume at 10 mg/kg, iv administered every 2 days for 31 days (reference value: 87.39 +/- 3.529 mm3); format: functional
[21] = system: HepG2; test: Downregulation of Cdk1 in human HepG2 cells at 10 to 100 nM after 24 hrs by Western blot analysis; format: functional, cell-based
[22] = system: HepG2; test: Cell cycle arrest in human HepG2 cells assessed as accumulation at G1 phase at 100 nM after 24 hrs by propidium iodide staining based flow cytometry (reference value: 42%); format: functional
[23] = system: HepG2; test: Downregulation of Cdc25C in human HepG2 cells at 10 to 100 nM after 24 hrs by Western blot analysis; format: functional, cell-based
[24] = system: Mus musculus; test: Toxicity in nude mouse xenografted with human HepG2 cells assessed as feeding at 10 mg/kg, iv administered every 2 days for 31 days; format: organism-based; conditions: in vivo
[25] = system: HepG2; test: Cell cycle arrest in human HepG2 cells assessed as accumulation at S phase at 100 nM after 24 hrs by propidium iodide staining based flow cytometry (reference value: 39%); format: functional
[26] = system: HepG2; test: Induction of apoptosis in human HepG2 cells assessed as upregulation of cleaved PARP levels at 0.5 uM after 48 hrs by Western blot analysis; format: functional, cell-based
[27] = system: HepG2; test: Cell cycle arrest in human HepG2 cells assessed as accumulation at S phase at 200 nM after 24 hrs by propidium iodide staining based flow cytometry (reference value: 39%); format: functional
[28] = system: Mus musculus; test: Toxicity in nude mouse xenografted with human HepG2 cells assessed as abnormal behavior at 10 mg/kg, iv administered every 2 days for 31 days; format: organism-based; conditions: in vivo
[29] = system: HepG2; test: Cell cycle arrest in human HepG2 cells assessed as accumulation at S phase at 500 nM after 24 hrs by propidium iodide staining based flow cytometry (reference value: 39%); format: functional
[30] = system: HepG2; test: Induction of apoptosis in human HepG2 cells assessed as upregulation of cleaved PARP levels after 48 hrs by Western blot analysis; format: functional, cell-based
[31] = system: HepG2; test: Induction of apoptosis in human HepG2 cells assessed as upregulation of cleaved caspase-3 levels at 0.5 uM after 48 hrs by Western blot analysis; format: functional, cell-based

Structure (SMILES): Cc1nc(N(C)c2ccc(OCCN3CCN(Cc4ccccc4F)CC3)cc2)c2ccccc2n1
pIC50 [1]: 7.05 | pIC50 [2]: 6.16 | pIC50 [3]: 6.15 | pIC50 [4]: 6.55

Structure (SMILES): Cc1nc(N(C)c2ccc(OCCN3CCN(Cc4ccc(C(C)(C)C)cc4)CC3)cc2)c2ccccc2n1
pIC50 [1]: < 5.00 | pIC50 [2]: < 5.00 | pIC50 [3]: < 5.00 | pIC50 [4]: < 5.00

Structure (SMILES): COc1cccc2c1C(=O)c1c(O)c3c(c(O)c1C2=O)C[C@@](O)(C(=O)CO)C[C@@H]3O[C@H]1C[C@H](N)[C@H](O)[C@H](C)O1.Cl [DOXORUBICIN HYDROCHLORIDE]
Activity [5]: 0.188 g | Activity [6]: 238.7 mm3

Structure (SMILES): Cc1nc(N(C)c2ccc(OCCN3CCN(Cc4ccccc4C#N)CC3)cc2)c2ccccc2n1
pIC50 [1]: 6.05 | pIC50 [2]: 6.00 | pIC50 [3]: 6.05 | pIC50 [4]: 5.24

Structure (SMILES): CN(c1ccc(OCCN2CCN(Cc3ccc(F)c(F)c3)CC2)cc1)c1nc(Cl)nc2ccccc12
pIC50 [1]: 5.88 | pIC50 [2]: 5.63 | pIC50 [3]: 6.05 | pIC50 [4]: 5.81

Structure (SMILES): CN(c1ccc(OCCN2CCN(Cc3ccc(C(C)(C)C)cc3)CC2)cc1)c1nc(Cl)nc2ccccc12
pIC50 [1]: < 5.00 | pIC50 [2]: < 5.00 | pIC50 [3]: < 5.00 | pIC50 [4]: < 5.00

Structure (SMILES): Cc1nc(N(C)c2ccc(OCCN3CCN(Cc4ccc(F)c(F)c4)CC3)cc2)c2ccccc2n1
pIC50 [1]: 5.18 | pIC50 [2]: 5.21 | pIC50 [3]: 5.49 | pIC50 [4]: < 5.00

Structure (SMILES): CN(c1ccc(OCCN2CCN(Cc3c(F)cccc3F)CC2)cc1)c1nc(Cl)nc2ccccc12
pIC50 [1]: 5.84 | pIC50 [2]: 5.70 | pIC50 [3]: 5.49 | pIC50 [4]: 5.20

Now from value to compound, other results behind:

pIC50 [1]: 6.19 | pIC50 [2]: 5.91 | pIC50 [4]: 6.43
Structure (SMILES): CN(c1ccc(OCCN2CCN(Cc3ccccc3Cl)CC2)cc1)c1nc(Cl)nc2ccccc12
pIC50 [3]: 6.01

pIC50 [1]: 6.36 | pIC50 [2]: 5.67 | pIC50 [4]: < 5.00
Structure (SMILES): Cc1nc(N(C)c2ccc(OCCN3CCN(Cc4ccccc4Br)CC3)cc2)c2ccccc2n1
pIC50 [3]: 5.91

pIC50 [1]: 6.26 | pIC50 [2]: 5.63 | pIC50 [4]: 6.06
Structure (SMILES): Cc1nc(N(C)c2ccc(OCCN3CCN(Cc4ccccc4Cl)CC3)cc2)c2ccccc2n1
pIC50 [3]: 5.53

pIC50 [1]: 7.54 | pIC50 [2]: 7.00 | pIC50 [4]: 6.83
Structure (SMILES): CN(c1ccc(OCCN2CCN(Cc3ccccc3F)CC2)cc1)c1nc(Cl)nc2ccccc12
Activity [7]: 30% | Activity [8]: Dose-dependent effect | Activity [9]: Non-toxic | Activity [10]: Active | Activity [11]: 67% | Activity [12]: 44% | Activity [13]: Active | Activity [14]: 25% | Activity [15]: Active | Activity [16]: 78.69% | Activity [17]: 0.217 g | Activity [18]: Dose-dependent effect | Activity [19]: 10% | Activity [20]: 259.78 mm3 | Activity [21]: Active | Activity [22]: 38% | Activity [23]: Active | pIC50 [3]: 7.28 | Activity [24]: Non-toxic | Activity [25]: 37% | Activity [26]: Active | Activity [27]: 26% | Activity [28]: Non-toxic | Activity [29]: 23% | Activity [30]: Dose-dependent effect | Activity [31]: Active
